Converted amounts (≈) assume the structure as drawn.
Tests used:
Assay type in all cases: cell-based
[1] = test system: Micrococcus luteus ATCC 9341; assay: Minimum inhibitory concentration, Micrococcus luteus ATCC 9341; details: ATCC9341
From the text: (§1) The compounds of formula (I) show antibacterial activity against both gram-positive and gram-negative bacteria. The following Tables illustrate minimum inhibitory concentrations (MIC's) for a representative sample of the compounds of the invention against gram-positive and gram-negative bacteria as well as bacteria resistant to antibiotics. In the Tables abbreviations with the symbol r attached designate resistant bacterial strains.

[2] = test system: Staphylococcus aureus KB 199(EM^r); assay: Minimum inhibitory concentration, Staphylococcus aureus KB 199(EM^r); details: Staphylococcus aureus KB 199, erythromycin-resistant (EM^r)
From the text: as §1

Bacillus cereus IFO 3001 = assay: Minimum inhibitory concentration, Bacillus cereus IFO 3001; details: IFO3001
From the text: as §1

[3] = test system: Klebsiella pneumoniae ATCC 10031; assay: Minimum inhibitory concentration, Klebsiella pneumoniae ATCC 10031; details: ATCC10031
From the text: as §1

Escherichia coli NIHJ = assay: Minimum inhibitory concentration, Escherichia coli NIHJ
From the text: as §1

[4] = test system: Mycobacterium smegmatis ATCC 607; assay: Minimum inhibitory concentration, Mycobacterium smegmatis ATCC 607; details: Mycolicibacterium smegmatis, ATCC607
From the text: as §1

[5] = test system: Bacillus subtilis PCI 219; assay: Minimum inhibitory concentration, Bacillus subtilis PCI 219; details: PCI219
From the text: as §1

[6] = test system: Klebsiella pneumoniae PCI 602; assay: Minimum inhibitory concentration, Klebsiella pneumoniae PCI 602; details: PCI602
From the text: as §1

[7] = test system: Staphylococcus aureus ATCC 6538P; assay: Minimum inhibitory concentration, Staphylococcus aureus ATCC 6538P; details: ATCC6538P
From the text: as §1

[8] = test system: Salmonella typhirium KB 20; assay: Minimum inhibitory concentration, Salmonella typhirium KB 20; details: KB20, read-out: minimum inhibitory concentration (MIC)
From the text: as §1

[9] = test system: Proteus vulgaris IFO 3167; assay: Minimum inhibitory concentration, Proteus vulgaris IFO 3167; details: IFO3167
From the text: as §1

[10] = test system: Pseudomonas aeruginosa P-3; assay: Minimum inhibitory concentration, Pseudomonas aeruginosa P-3; details: P3
From the text: as §1

SMILES	MIC [1] [µg/mL]	MIC [2] [µg/mL]	MIC (Bacillus cereus IFO 3001) [µg/mL]	MIC [3] [µg/mL]	MIC (Escherichia coli NIHJ) [µg/mL]	MIC [4] [µg/mL]	MIC [5] [µg/mL]	MIC [6] [µg/mL]	MIC [7] [µg/mL]	MIC [8] [µg/mL]	MIC [9] [µg/mL]	MIC [10] [µg/mL]
CCC1OC(=O)CC(O)C(C)C(OC2OC(C)C(OC3CC(C)(O)C(O)C(C)O3)C(N(C)C)C2O)C(CC(Sc2ccccc2)Sc2ccccc2)CC(C)C(=O)C=CC(C)=CC1COC1OC(C)C(O)C(OC)C1OC (centres unmarked) [Compound C, Tylosin Diphenyl Thioacetal]	0.2 (≈ 0.179 µM)	> 50	0.78 (≈ 0.697 µM)	> 100	> 100	50 (≈ 44.7 µM)	0.78 (≈ 0.697 µM)	> 100	12.5 (≈ 11.2 µM)	> 100	> 100	
CCSC1CC(=O)C(C)CC(CC=O)C(OC2OC(C)C(O)C(N(C)C)C2O)C(C)C(O)CC(=O)OC(CC)C(COC2OC(C)C(O)C(OC)C2OC)C=C1C (centres unmarked) [Compound N, 11-(Ethylthio)-10,11-dihydrodemycarosyltylosin]	0.2 (≈ 0.24 µM)	> 100	0.78 (≈ 0.935 µM)	50 (≈ 59.9 µM)	> 100	> 100	0.78 (≈ 0.935 µM)	> 100	1.56 (≈ 1.87 µM)	> 100	> 100	> 100
CCC1OC(=O)CC(O)C(C)C(OC2OC(C)C(O)C(N(C)C)C2O)C(CC=O)CC(C)C(=O)CC(Sc2ccc(N)cc2)C(C)=CC1COC1OC(C)C(O)C(OC)C1OC (centres unmarked) [Compound P, 11-(p-Aminophenylthio)-10,11-dihydrodemycarosyltylosin]	0.2 (≈ 0.223 µM)	> 100	0.78 (≈ 0.869 µM)	100 (≈ 111 µM)	> 100	> 100	3.12 (≈ 3.48 µM)	> 100	3.12 (≈ 3.48 µM)	> 100	> 100	> 100
CCC1OC(=O)CC(O)C(C)C(OC2OC(C)C(O)C(N(C)C)C2O)C(CC=O)CC(C)C(=O)CC(Sc2ccccc2)C(C)=CC1COC1OC(C)C(O)C(OC)C1OC (centres unmarked) [Compound Q, 10,11-Dihydro-11-(phenylthio)demycarosyltylosin]	< 0.1	> 100	0.2 (≈ 0.227 µM)	100 (≈ 113 µM)	100 (≈ 113 µM)	> 100	0.78 (≈ 0.884 µM)	100 (≈ 113 µM)	0.78 (≈ 0.884 µM)	100 (≈ 113 µM)	50 (≈ 56.7 µM)	> 100
CCSC1CC(=O)C(C)CC(CC=O)C(OC2OC(C)C(OC3CC(C)(O)C(O)C(C)O3)C(N(C)C)C2O)C(C)C(O)CC(=O)OC(CC)C(COC2OC(C)C(O)C(OC)C2OC)C=C1C (centres unmarked) [Compound R, 11-(Ethylthio)-10,11-dihydrotylosin]	< 0.1	> 100	0.78 (≈ 0.797 µM)	100 (≈ 102 µM)	100 (≈ 102 µM)	100 (≈ 102 µM)	0.78 (≈ 0.797 µM)	100 (≈ 102 µM)	1.56 (≈ 1.59 µM)	> 100	> 100	> 100
